We go through one compound from article PMC11796312, “Multifunctional, Fluorene‐Based Modulator of Cholinergic and GABAergic Neurotransmission as a Novel Drug Candidate for Palliative Treatment of Alzheimer's Disease” (Angewandte Chemie (International Ed. in English), 2024).

This data set addresses T1, human CYP2D6 (Homo sapiens, UniProt P10635).
T1 construct: purchased Thermo Fisher Scientific
The data set is described as follows: Inhibition of human CYP450 isoforms (Vivid kits). As to conditions: recombinant CYP2D6, 10 min. Format: in vitro ADME. The protocol:
nonlinear regression analysis using GraphPad Prism 9.0 software. All values are expressed as […]
Table S10. The viability of cells. neurotoxicity immuntoxicity
The results (viability values) are provided as a percentage of live cells with respect to DMSO (control sample)
Table S11. The viability of cells. […]
Inhibition of human CYP450 isoforms
The inhibitory potential of compound 6 toward human CYP1A2, CYP2C9, CYP2D6, and CYP3A4 enzymes was assessed using Vivid® CYP450 Screening Kits (Thermo Fisher Scientific, Waltham, MA, USA). A six -point concentration gradient of compound 6 was prepared in reaction buffer and pipetted onto a black 96 -well plate (Brand, Wertheim Germany) and then a mixture of the respective recombinant CYP isoenzyme and the NADPH regeneration system was added, following the manufacturer’s instructions. The DMSO concentration was maintained at 0.5% in all reaction v ariants including controls. […]
adding NADP+ and the respective CYP isoenzyme substrate. After a further 10-minute incubation at 37°C, the formation of the reaction product was measured as fluorescence using a SPARK microplate reader (TECAN, Männedorf, Switzerland). The half-maximal inhibitory concentration (IC50) values were calculated by fitting the data to sigmoidal Hill curves using GraphPad Prism version 10.1.2. […]

T1 sequence (P10635 whole entry): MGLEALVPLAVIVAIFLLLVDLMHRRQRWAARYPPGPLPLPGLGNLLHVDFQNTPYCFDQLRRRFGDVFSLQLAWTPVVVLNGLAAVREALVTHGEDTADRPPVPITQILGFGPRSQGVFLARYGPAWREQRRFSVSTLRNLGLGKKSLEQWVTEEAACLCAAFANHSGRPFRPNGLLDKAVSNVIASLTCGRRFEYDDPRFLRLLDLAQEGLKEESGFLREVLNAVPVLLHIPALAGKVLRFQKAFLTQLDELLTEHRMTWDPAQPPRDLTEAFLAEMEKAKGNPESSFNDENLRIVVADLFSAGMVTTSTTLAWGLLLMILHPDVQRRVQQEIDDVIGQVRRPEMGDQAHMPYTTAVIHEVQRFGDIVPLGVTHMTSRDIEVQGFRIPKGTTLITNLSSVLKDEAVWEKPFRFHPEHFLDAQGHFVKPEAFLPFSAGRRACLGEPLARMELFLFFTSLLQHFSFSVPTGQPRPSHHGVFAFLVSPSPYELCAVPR

On to `O[C@H](CNCC1CC1)[C@H](Cc1ccccc1)NC1c2ccccc2-c2ccccc21` [Compound 6], for which the CYP2D6 inhibition entry was “CYP2D6 inhibitor”.
